From patent US20210338652A1, “COMPOSITION AND USE FOR THE TREATMENT OF PARKINSON'S DISEASE AND RELATED DISORDERS” (CHASE THERAPEUTICS CORPORATION, priority 2018, published 2021)
Read-outs that look alike come from different tables or passages of the source.

Key:
[1] = system: humans; settings: for Maximal Tolerated Dose (MTD): oral pramipexole escalation to max 6 mg, ondansetron 8 mg or aprepitant 80 mg where combined
[2] = in vivo; cited from earlier work

Row | SMILES | dose limiting toxicity ([1]; both, human, in vivo) | Maximal Tolerated Dose (MTD) ([1]; subject 1001) | Maximal Tolerated Dose (MTD) ([1]; subject 1006) | Maximal Tolerated Dose (MTD) ([1]; subject 1007) | Maximal Tolerated Dose (MTD) ([1]; subject 1008) | plasma half-life [2]
1 | CCCN[C@H]1CCc2nc(N)sc2C1 [Pramipexole, (S)-6-propylamino-4,5,6,7-tetrahydro-1,3-benzothiazole-2-amine] | gastro-intestinal adverse event in all 4 subjects | 2.0 mg | <0.5 mg | 4.0 mg | 1.0 mg | –
2 | C=CCN1C[C@H](C(=O)N(CCCN(C)C)C(=O)NCC)C[C@@H]2c3cccc4[nH]cc(c34)C[C@H]21 [cabergoline, (6aR,9R,10aR)—N-[3-(dimethylamino)propyl]-N-(ethylcarbamoyl)-7-prop-2-enyl-6,6a,8,9,10,10a-hexahydro-4H-indolo[4,3-fg]quinoline-9-carboxamide] | – | – | – | – | – | about 65 hours
